Measurements from patent publication US12723063B2, “GIPR-agonist compounds” (Eli Lilly and Company, priority 2019, dated 2026).
*1 amine or outer side, *2 acyl side, *3 side chain or, on linkers, in order; H or OH if unused. Where a SMILES comes first, the peptide text is derived from it. Side-chain parts run from the residue outwards. [ ]: non-standard residue; d: D form. The star is where a group is joined. C20 diacid = O=C(O)CCCCCCCCCCCCCCCCCCC(=O)*; C18 diacid = O=C(O)CCCCCCCCCCCCCCCCC(=O)*; γGlu = O=C(O)[C@H](CCC(=O)[*:2])N[*:1]; αMeF = C[C@](N)(Cc1ccccc1)C(=O)O; 4Pal = N[C@@H](Cc1ccncc1)C(=O)O; αMeL = CC(C)C[C@](C)(N)C(=O)O; Iva = CC[C@](C)(N)C(=O)O; AEEA = NCCOCCOCC(=O)O; Aib = CC(C)(N)C(=O)O

What was measured:
Test in all cases: cAMP functional assay (HTRF) in HEK293 cells in presence of 0.1% casein
Format in all cases: cell-based
[1] = molecular target: T1, human GLP-1 receptor (GLP-1R) (Homo sapiens, UniProt P43220); conditions: HEK293 cells expressing human GLP-1R, geometric mean, read-out: hGLP1R cAMP Rel EC50 nM (SEM, n)
T1 construct: expressed in transfected cells; host or cells: HEK293

[2] = molecular target: T2, human glucagon receptor (GcgR) (Homo sapiens, UniProt P47871); conditions: HEK293 cells expressing human GcgR, geometric mean, read-out: hGcgR cAMP Rel EC50 nM (SEM, n)
T2 construct: expressed in transfected cells; host or cells: HEK293

[3] = molecular target: T3, human glucose-dependent insulinotropic peptide receptor (GIPR) (Homo sapiens, UniProt P48546); conditions: HEK293 cells expressing human GIPR, geometric mean, read-out: hGIPR cAMP Rel EC50 nM (SEM, n)
T3 construct: expressed in transfected cells; host or cells: HEK293
T3 sequence (P48546 22-466): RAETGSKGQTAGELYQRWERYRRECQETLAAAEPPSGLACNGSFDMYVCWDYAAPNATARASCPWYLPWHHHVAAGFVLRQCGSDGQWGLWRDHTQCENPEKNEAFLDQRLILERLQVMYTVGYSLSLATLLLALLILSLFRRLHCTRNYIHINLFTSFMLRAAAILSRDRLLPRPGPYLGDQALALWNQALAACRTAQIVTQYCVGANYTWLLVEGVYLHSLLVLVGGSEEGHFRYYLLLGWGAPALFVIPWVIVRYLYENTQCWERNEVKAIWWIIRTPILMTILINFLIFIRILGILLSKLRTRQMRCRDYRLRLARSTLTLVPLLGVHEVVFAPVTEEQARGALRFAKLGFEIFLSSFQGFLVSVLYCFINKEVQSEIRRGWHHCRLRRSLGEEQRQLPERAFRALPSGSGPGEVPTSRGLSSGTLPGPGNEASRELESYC

T1 sequence (P43220 24-463): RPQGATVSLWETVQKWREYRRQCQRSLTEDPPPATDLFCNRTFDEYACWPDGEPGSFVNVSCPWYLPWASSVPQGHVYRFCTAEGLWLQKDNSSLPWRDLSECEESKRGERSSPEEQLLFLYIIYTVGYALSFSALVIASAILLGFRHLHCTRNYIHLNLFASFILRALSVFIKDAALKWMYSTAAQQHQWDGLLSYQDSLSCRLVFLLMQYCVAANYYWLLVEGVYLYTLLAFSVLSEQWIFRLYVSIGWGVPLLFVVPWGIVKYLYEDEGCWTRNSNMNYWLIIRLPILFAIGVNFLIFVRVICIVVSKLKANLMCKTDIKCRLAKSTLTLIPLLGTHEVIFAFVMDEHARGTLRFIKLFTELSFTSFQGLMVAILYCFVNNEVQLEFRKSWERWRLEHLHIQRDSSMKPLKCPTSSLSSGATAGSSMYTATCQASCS
T2 sequence (P47871 26-477): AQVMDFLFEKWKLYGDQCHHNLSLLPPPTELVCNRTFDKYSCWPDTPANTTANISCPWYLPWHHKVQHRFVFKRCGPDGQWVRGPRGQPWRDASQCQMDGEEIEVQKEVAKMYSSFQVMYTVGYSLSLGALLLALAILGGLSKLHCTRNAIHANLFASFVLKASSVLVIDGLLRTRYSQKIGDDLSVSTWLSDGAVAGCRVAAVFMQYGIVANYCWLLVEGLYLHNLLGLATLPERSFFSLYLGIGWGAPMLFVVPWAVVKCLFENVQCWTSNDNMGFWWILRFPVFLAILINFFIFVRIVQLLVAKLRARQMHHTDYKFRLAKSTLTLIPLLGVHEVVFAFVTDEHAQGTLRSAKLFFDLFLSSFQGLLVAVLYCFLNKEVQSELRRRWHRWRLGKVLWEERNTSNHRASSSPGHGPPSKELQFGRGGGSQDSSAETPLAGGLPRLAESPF

Compound | EC50 [1] | EC50 [2] | EC50 [3]
CC[C@H](C)[C@H](NC(=O)[C@H](CCCCN)NC(=O)[C@H](CC(=O)O)NC(=O)[C@H](CC(C)C)NC(=O)[C@](C)(CC(C)C)NC(=O)[C@@H](NC(=O)[C@H](CO)NC(=O)[C@H](Cc1ccc(O)cc1)NC(=O)[C@H](CC(=O)O)NC(=O)[C@H](CO)NC(=O)[C@@H](NC(=O)[C@H](Cc1ccccc1)NC(=O)[C@@H](NC(=O)CNC(=O)[C@H](CCC(=O)O)NC(=O)C(C)(C)NC(=O)[C@@H](N)Cc1ccc(O)cc1)[C@@H](C)O)[C@@H](C)CC)[C@@H](C)CC)C(=O)N[C@@H](Cc1c[nH]cn1)C(=O)N[C@@H](CCC(N)=O)C(=O)NC(C)(C)C(=O)N[C@@H](CC(=O)O)C(=O)N[C@@H](Cc1ccccc1)C(=O)N[C@H](C(=O)N[C@@H](CCC(=O)O)C(=O)N[C@@H](Cc1ccc(O)cc1)C(=O)N[C@@H](CCCCNC(=O)COCCOCCNC(=O)COCCOCCNC(=O)CC[C@H](NC(=O)CCCCCCCCCCCCCCCCCCC(=O)O)C(=O)O)C(=O)N[C@@H](CC(C)C)C(=O)N[C@@H](CCC(=O)O)C(=O)N[C@@H](C)C(=O)NCC(=O)N1CCC[C@H]1C(=O)N[C@@H](CO)C(=O)N[C@@H](CO)C(=O)NCC(=O)N[C@@H](C)C(=O)N1CCC[C@H]1C(=O)N1CCC[C@H]1C(=O)N1CCC[C@H]1C(=O)N[C@@H](CO)C(N)=O)C(C)C [Example 117] (H-Y[Aib]EGTFISDYSI[αMeL]LDKIHQ[Aib]DFVEYK([AEEA-AEEA-γGlu-C20 diacid])LEAGPSSGAPPPS-NH2) | > 5000 nM | > 5000 nM | 0.0617 nM
CC[C@H](C)[C@H](NC(=O)[C@H](CCCCN)NC(=O)[C@H](CC(=O)O)NC(=O)[C@H](CC(C)C)NC(=O)[C@H](CC(C)C)NC(=O)[C@@H](NC(=O)[C@H](CO)NC(=O)[C@H](Cc1ccc(O)cc1)NC(=O)[C@H](CC(=O)O)NC(=O)[C@H](CO)NC(=O)[C@@H](NC(=O)[C@H](Cc1ccccc1)NC(=O)[C@@H](NC(=O)CNC(=O)[C@H](CCC(=O)O)NC(=O)[C@@H](C)NC(=O)[C@@H](N)Cc1ccc(O)cc1)[C@@H](C)O)[C@@H](C)CC)[C@@H](C)CC)C(=O)N[C@@H](C)C(=O)N[C@@H](CCC(N)=O)C(=O)NC(C)(C)C(=O)N[C@@H](CC(=O)O)C(=O)N[C@@H](Cc1ccccc1)C(=O)N[C@H](C(=O)N[C@@H](CC(N)=O)C(=O)N[C@@H](Cc1c[nH]c2ccccc12)C(=O)N[C@@H](CCCCNC(=O)COCCOCCNC(=O)COCCOCCNC(=O)CC[C@H](NC(=O)CCCCCCCCCCCCCCCCC(=O)O)C(=O)O)C(=O)N[C@@H](CC(C)C)C(=O)N[C@@H](C)C(=O)N[C@@H](CCC(N)=O)C(=O)NCC(=O)N1CCC[C@H]1C(=O)N[C@@H](CO)C(=O)N[C@@H](CO)C(=O)NCC(=O)N[C@@H](C)C(=O)N1CCC[C@H]1C(=O)N1CCC[C@H]1C(=O)N1CCC[C@H]1C(=O)N[C@@H](CO)C(N)=O)C(C)C [Example 93] (H-Y[dA]EGTFISDYSILLDKIAQ[Aib]DFVNWK([AEEA-AEEA-γGlu-C18 diacid])LAQGPSSGAPPPS-NH2) | 884 nM | > 5000 nM | 0.00482 nM
CC[C@H](C)[C@H](NC(=O)[C@H](CO)NC(=O)[C@H](Cc1ccc(O)cc1)NC(=O)[C@H](CC(=O)O)NC(=O)[C@H](CO)NC(=O)[C@@H](NC(=O)[C@](C)(CC)NC(=O)[C@@H](NC(=O)CNC(=O)[C@H](CCC(=O)O)NC(=O)C(C)(C)NC(=O)[C@@H](N)Cc1ccc(O)cc1)[C@@H](C)O)[C@@H](C)CC)C(=O)N[C@@](C)(CC(C)C)C(=O)N[C@@H](CC(C)C)C(=O)N[C@@H](CC(=O)O)C(=O)N[C@@H](CCCCN)C(=O)N[C@@H](CCCCNC(=O)COCCOCCNC(=O)COCCOCCNC(=O)CC[C@H](NC(=O)CCCCCCCCCCCCCCCCCCC(=O)O)C(=O)O)C(=O)N[C@@H](Cc1c[nH]cn1)C(=O)N[C@@H](CCC(N)=O)C(=O)NC(C)(C)C(=O)N[C@@H](CC(=O)O)C(=O)N[C@@H](Cc1ccccc1)C(=O)N[C@H](C(=O)N[C@@H](CCC(=O)O)C(=O)N[C@@H](Cc1ccncc1)C(=O)N[C@@H](CC(C)C)C(=O)N[C@@H](CC(C)C)C(=O)N[C@@H](CCC(=O)O)C(=O)N[C@@H](C)C(=O)NCC(=O)N1CCC[C@H]1C(=O)N[C@@H](CO)C(=O)N[C@@H](CO)C(=O)NCC(=O)N[C@@H](C)C(=O)N1CCC[C@H]1C(=O)N1CCC[C@H]1C(=O)N1CCC[C@H]1C(=O)N[C@@H](CO)C(N)=O)C(C)C [Example 88] (H-Y[Aib]EGT[Iva]ISDYSI[αMeL]LDKK([AEEA-AEEA-γGlu-C20 diacid])HQ[Aib]DFVE[4Pal]LLEAGPSSGAPPPS-NH2) | > 5000 nM | 1670 nM | 0.0031 nM
CC[C@H](C)[C@H](NC(=O)[C@H](CO)NC(=O)[C@H](Cc1ccc(O)cc1)NC(=O)[C@H](CC(=O)O)NC(=O)[C@H](CO)NC(=O)[C@@H](NC(=O)[C@H](Cc1ccccc1)NC(=O)[C@@H](NC(=O)CNC(=O)[C@H](CCC(=O)O)NC(=O)[C@@H](C)NC(=O)[C@@H](N)Cc1ccc(O)cc1)[C@@H](C)O)[C@@H](C)CC)C(=O)N[C@@H](CC(C)C)C(=O)N[C@@H](CC(C)C)C(=O)N[C@@H](CC(=O)O)C(=O)N[C@@H](CCCCN)C(=O)N[C@@H](CCCCNC(=O)COCCOCCNC(=O)COCCOCCNC(=O)CC[C@H](NC(=O)CCCCCCCCCCCCCCCCC(=O)O)C(=O)O)C(=O)N[C@@H](C)C(=O)N[C@@H](CCC(N)=O)C(=O)NC(C)(C)C(=O)N[C@@H](CCC(=O)O)C(=O)N[C@@H](Cc1ccccc1)C(=O)N[C@H](C(=O)N[C@@H](CC(N)=O)C(=O)N[C@@H](Cc1c[nH]c2ccccc12)C(=O)N[C@@H](CC(C)C)C(=O)N[C@@H](CC(C)C)C(=O)N[C@@H](CCC(=O)O)C(=O)NCC(=O)NCC(=O)N1CCC[C@H]1C(=O)N[C@@H](CO)C(=O)N[C@@H](CO)C(=O)NCC(=O)N[C@@H](C)C(=O)N1CCC[C@H]1C(=O)N1CCC[C@H]1C(=O)N1CCC[C@H]1C(=O)N[C@@H](CO)C(N)=O)C(C)C [Example 28] (H-Y[dA]EGTFISDYSILLDKK([AEEA-AEEA-γGlu-C18 diacid])AQ[Aib]EFVNWLLEGGPSSGAPPPS-NH2) | > 5000 nM | > 5000 nM | 0.0118 nM
CC[C@H](C)[C@H](NC(=O)[C@H](CO)NC(=O)[C@H](Cc1ccc(O)cc1)NC(=O)[C@H](CC(=O)O)NC(=O)[C@H](CO)NC(=O)[C@@H](NC(=O)[C@H](Cc1ccccc1)NC(=O)[C@@H](NC(=O)CNC(=O)[C@H](CCC(=O)O)NC(=O)[C@@H](C)NC(=O)[C@@H](N)Cc1ccc(O)cc1)[C@@H](C)O)[C@@H](C)CC)C(=O)N[C@@H](CC(C)C)C(=O)N[C@@H](CC(C)C)C(=O)N[C@@H](CC(=O)O)C(=O)N[C@@H](CCCCN)C(=O)N[C@@H](CCCCNC(=O)COCCOCCNC(=O)COCCOCCNC(=O)CC[C@H](NC(=O)CCCCCCCCCCCCCCCCCCC(=O)O)C(=O)O)C(=O)N[C@@H](C)C(=O)N[C@@H](CCC(N)=O)C(=O)N[C@@H](CCC(N)=O)C(=O)N[C@@H](CC(=O)O)C(=O)N[C@@H](Cc1ccccc1)C(=O)N[C@H](C(=O)N[C@@H](CC(N)=O)C(=O)N[C@@H](Cc1c[nH]c2ccccc12)C(=O)N[C@@H](CC(C)C)C(=O)N[C@@H](CC(C)C)C(=O)N[C@@H](C)C(=O)NCC(=O)NCC(=O)N1CCC[C@H]1C(=O)N[C@@H](CO)C(=O)N[C@@H](CO)C(=O)NCC(=O)N[C@@H](C)C(=O)N1CCC[C@H]1C(=O)N1CCC[C@H]1C(=O)N1CCC[C@H]1C(=O)N[C@@H](CO)C(N)=O)C(C)C [Example 12] (H-Y[dA]EGTFISDYSILLDKK([AEEA-AEEA-γGlu-C20 diacid])AQQDFVNWLLAGGPSSGAPPPS-NH2) | > 100 nM | > 5000 nM | 0.0911 nM
CC[C@H](C)[C@H](NC(=O)[C@H](CO)NC(=O)[C@H](Cc1ccc(O)cc1)NC(=O)[C@H](CC(=O)O)NC(=O)[C@H](CO)NC(=O)[C@@H](NC(=O)[C@](C)(Cc1ccccc1)NC(=O)[C@@H](NC(=O)CNC(=O)[C@H](CCC(=O)O)NC(=O)C(C)(C)NC(=O)[C@@H](N)Cc1ccc(O)cc1)[C@@H](C)O)[C@@H](C)CC)C(=O)N[C@@H](C)C(=O)N[C@@H](CC(C)C)C(=O)N[C@@H](CC(=O)O)C(=O)N[C@@H](CCCCN)C(=O)N[C@@H](CCCCNC(=O)COCCOCCNC(=O)COCCOCCNC(=O)CC[C@H](NC(=O)CCCCCCCCCCCCCCCCC(=O)O)C(=O)O)C(=O)N[C@@H](Cc1c[nH]cn1)C(=O)N[C@@H](CCC(N)=O)C(=O)NC(C)(C)C(=O)N[C@@H](CC(=O)O)C(=O)N[C@@H](Cc1ccccc1)C(=O)N[C@H](C(=O)N[C@@H](CCC(=O)O)C(=O)N[C@@H](Cc1ccncc1)C(=O)N[C@@H](CC(C)C)C(=O)N[C@@H](CC(C)C)C(=O)N[C@@H](C)C(=O)NCC(=O)NCC(=O)N1CCC[C@H]1C(=O)N[C@@H](CO)C(=O)N[C@@H](CO)C(=O)NCC(=O)N[C@@H](C)C(=O)N1CCC[C@H]1C(=O)N1CCC[C@H]1C(=O)N1CCC[C@H]1C(=O)N[C@@H](CO)C(N)=O)C(C)C [Example 23] (H-Y[Aib]EGT[αMeF]ISDYSIALDKK([AEEA-AEEA-γGlu-C18 diacid])HQ[Aib]DFVE[4Pal]LLAGGPSSGAPPPS-NH2) | 206 nM | > 5000 nM | 0.0192 nM
